The source made the active and inactive calls. The rule behind the calls is not given here.
Columns and labels:
Hepatovirus A [1] = test: Antiviral activity against HAV 20 ug/10^5 cells by plaque infectivity assay
Hepatovirus A [2] = test: Antiviral activity against HAV 10 ug/10^5 cells by plaque infectivity assay; type: functional, organism-based
Human alphaherpesvirus 1 [3] = test: Antiviral activity against HSV1 10 ug/10^5 cells by plaque infectivity assay; type: functional, organism-based
Human alphaherpesvirus 1 [4] = test: Antiviral activity against HSV1 20 ug/10^5 cells by plaque infectivity assay; type: functional, organism-based

SMILES	Activity (Hepatovirus A [1])	Activity (Hepatovirus A [2])	Activity (Human alphaherpesvirus 1 [3])	Activity (Human alphaherpesvirus 1 [4])
N#Cc1cnn(-c2ncnc3sc4c(c23)-c2ccccc2CC4)c1N	Active	Active	–	–
COC(CSc1ncnc2c1cnn2-c1ncnc2sc3c(c12)-c1ccccc1CC3)OC	–	–	Active	–
CCOC(=O)c1cnn(-c2ncnc3sc4c(c23)-c2ccccc2CC4)c1N	Active	–	–	–
N#Cc1cnn(-c2ncnc3sc4c(c23)-c2ccccc2CC4)c1NC(=S)NC(=O)c1ccccc1	–	Active	Active	Active
COCCSc1ncnc2c1cnn2-c1ncnc2sc3c(c12)-c1ccccc1CC3	–	–	Active	Active
